Laboratory results: the NIST ThermoML archive (doi:10.1016/j.jct.2019.02.028)

Experiment: xn = mol fraction of the nth substance listed
Settings: Gas, Burnett expansion method

C=C(F)C(F)(F)F [2,3,3,3-tetrafluoro-1-propene] + FCF
Settings | mass density [kg/m3]
333.59 K, 860.21 kPa, x2 = 0.698 | 23.99
333.59 K, 1119 kPa, x2 = 0.259 | 46.7
333.59 K, 1128.1 kPa, x2 = 0.449 | 40.52
333.59 K, 1537.9 kPa, x2 = 0.259 | 70.09
333.6 K, 552.32 kPa, x2 = 0.874 | 12.52
333.6 K, 589.81 kPa, x2 = 0.698 | 15.97
333.61 K, 804.94 kPa, x2 = 0.874 | 18.8
333.61 K, 1164.8 kPa, x2 = 0.874 | 28.24
333.61 K, 1308.2 kPa, x2 = 0.119 | 63.18
333.64 K, 1653.6 kPa, x2 = 0.874 | 42.42
338.52 K, 549.73 kPa, x2 = 0.449 | 17.96
338.52 K, 1260 kPa, x2 = 0.698 | 36.03
338.52 K, 1772.2 kPa, x2 = 0.698 | 54.11
338.52 K, 2408.6 kPa, x2 = 0.698 | 81.28
338.53 K, 875.76 kPa, x2 = 0.698 | 23.99
338.53 K, 960.84 kPa, x2 = 0.119 | 42.01
338.53 K, 1150.8 kPa, x2 = 0.449 | 40.51
338.53 K, 2177.3 kPa, x2 = 0.449 | 91.55
338.54 K, 554.13 kPa, x2 = 0.259 | 20.7
338.54 K, 801.95 kPa, x2 = 0.449 | 26.97
338.54 K, 1788.2 kPa, x2 = 0.119 | 94.94
338.54 K, 2337.3 kPa, x2 = 0.874 | 63.7
338.54 K, 3099.5 kPa, x2 = 0.698 | 122
338.54 K, 3099.9 kPa, x2 = 0.874 | 96.05
338.54 K, 3850.5 kPa, x2 = 0.874 | 144.78
338.55 K, 671.73 kPa, x2 = 0.119 | 27.97
338.55 K, 1615.3 kPa, x2 = 0.449 | 60.93
338.55 K, 1689.4 kPa, x2 = 0.874 | 42.41
338.56 K, 599.87 kPa, x2 = 0.698 | 15.97
338.56 K, 803.81 kPa, x2 = 0.259 | 31.09
338.56 K, 1143.1 kPa, x2 = 0.259 | 46.69
338.56 K, 1187 kPa, x2 = 0.874 | 28.23
338.56 K, 1577.4 kPa, x2 = 0.259 | 70.08
338.56 K, 2083.1 kPa, x2 = 0.259 | 105.4
338.57 K, 819.08 kPa, x2 = 0.874 | 18.8
338.57 K, 1339.9 kPa, x2 = 0.119 | 63.15
338.61 K, 561.65 kPa, x2 = 0.874 | 12.52
343.46 K, 1811.6 kPa, x2 = 0.698 | 54.1
343.47 K, 558.86 kPa, x2 = 0.449 | 17.95
343.47 K, 2473.8 kPa, x2 = 0.698 | 81.25
343.48 K, 1650.8 kPa, x2 = 0.449 | 60.9
343.48 K, 3195 kPa, x2 = 0.874 | 95.98
343.49 K, 609.66 kPa, x2 = 0.698 | 15.97
343.49 K, 980.04 kPa, x2 = 0.119 | 42
343.49 K, 1173.6 kPa, x2 = 0.449 | 40.5
343.49 K, 1284.8 kPa, x2 = 0.698 | 36.02
343.5 K, 815.99 kPa, x2 = 0.449 | 26.96
343.5 K, 1724.4 kPa, x2 = 0.874 | 42.4
343.5 K, 1840.8 kPa, x2 = 0.119 | 94.9
343.5 K, 2238.7 kPa, x2 = 0.449 | 91.51
343.5 K, 2312 kPa, x2 = 0.119 | 142.7
343.5 K, 3209.6 kPa, x2 = 0.698 | 121.97
343.51 K, 683.81 kPa, x2 = 0.119 | 27.96
343.51 K, 891.35 kPa, x2 = 0.698 | 23.98
343.51 K, 1370.9 kPa, x2 = 0.119 | 63.13
343.51 K, 1616.3 kPa, x2 = 0.259 | 70.08
343.51 K, 2395 kPa, x2 = 0.874 | 63.68
343.51 K, 2864.8 kPa, x2 = 0.449 | 137.45
343.51 K, 4012.3 kPa, x2 = 0.874 | 144.62
343.52 K, 1167 kPa, x2 = 0.259 | 46.68
343.52 K, 2146.2 kPa, x2 = 0.259 | 105.38
343.54 K, 563.91 kPa, x2 = 0.259 | 20.69
343.54 K, 833.17 kPa, x2 = 0.874 | 18.79
343.54 K, 1209.2 kPa, x2 = 0.874 | 28.23
343.55 K, 818.98 kPa, x2 = 0.259 | 31.08
343.56 K, 570.8 kPa, x2 = 0.874 | 12.51
348.39 K, 1850.8 kPa, x2 = 0.698 | 54.08
348.42 K, 568.01 kPa, x2 = 0.449 | 17.95
348.42 K, 1308.9 kPa, x2 = 0.698 | 36.01
348.42 K, 2538.2 kPa, x2 = 0.698 | 81.23
348.43 K, 695.54 kPa, x2 = 0.119 | 27.95
348.43 K, 1196 kPa, x2 = 0.449 | 40.49
348.43 K, 3289.2 kPa, x2 = 0.874 | 95.91
348.44 K, 619.54 kPa, x2 = 0.698 | 15.96
348.45 K, 906.67 kPa, x2 = 0.698 | 23.97
348.45 K, 999.4 kPa, x2 = 0.119 | 41.99
348.45 K, 1401.8 kPa, x2 = 0.119 | 63.11
348.45 K, 1687.6 kPa, x2 = 0.449 | 60.87
348.45 K, 1759.4 kPa, x2 = 0.874 | 42.38
348.45 K, 1892.6 kPa, x2 = 0.119 | 94.85
348.45 K, 2299.3 kPa, x2 = 0.449 | 91.46
348.45 K, 2405.8 kPa, x2 = 0.119 | 142.61
348.45 K, 3317.7 kPa, x2 = 0.698 | 121.94
348.46 K, 573.31 kPa, x2 = 0.259 | 20.69
348.46 K, 830.53 kPa, x2 = 0.449 | 26.96
348.46 K, 1654.8 kPa, x2 = 0.259 | 70.07
348.46 K, 2452 kPa, x2 = 0.874 | 63.66
348.46 K, 2967.9 kPa, x2 = 0.449 | 137.38
348.47 K, 833.57 kPa, x2 = 0.259 | 31.08
348.47 K, 847.11 kPa, x2 = 0.874 | 18.79
348.47 K, 1190.6 kPa, x2 = 0.259 | 46.68
348.47 K, 2210.4 kPa, x2 = 0.259 | 105.36
348.47 K, 4171.1 kPa, x2 = 0.874 | 144.45
348.48 K, 1231.2 kPa, x2 = 0.874 | 28.22
348.51 K, 579.9 kPa, x2 = 0.874 | 12.51
353.35 K, 1889.8 kPa, x2 = 0.698 | 54.07
353.37 K, 1218.4 kPa, x2 = 0.449 | 40.48
353.37 K, 2601.9 kPa, x2 = 0.698 | 81.21
353.38 K, 577.17 kPa, x2 = 0.449 | 17.94
353.38 K, 1943.6 kPa, x2 = 0.119 | 94.8
353.38 K, 3382.4 kPa, x2 = 0.874 | 95.84
353.39 K, 629.39 kPa, x2 = 0.698 | 15.96
353.39 K, 707.68 kPa, x2 = 0.119 | 27.94
353.39 K, 922.11 kPa, x2 = 0.698 | 23.97
353.39 K, 1432.5 kPa, x2 = 0.119 | 63.08
353.39 K, 1723.8 kPa, x2 = 0.449 | 60.85
353.39 K, 2359.1 kPa, x2 = 0.449 | 91.42
353.39 K, 3068.7 kPa, x2 = 0.449 | 137.31
353.4 K, 582.53 kPa, x2 = 0.259 | 20.69
353.4 K, 844.78 kPa, x2 = 0.449 | 26.95
353.4 K, 1018.6 kPa, x2 = 0.119 | 41.97
353.4 K, 1333.5 kPa, x2 = 0.698 | 36
353.4 K, 1794.1 kPa, x2 = 0.874 | 42.37
353.4 K, 2493.2 kPa, x2 = 0.119 | 142.52
353.4 K, 2508.3 kPa, x2 = 0.874 | 63.64
353.4 K, 3424.3 kPa, x2 = 0.698 | 121.92
353.41 K, 1213.9 kPa, x2 = 0.259 | 46.67
353.41 K, 1693 kPa, x2 = 0.259 | 70.07
353.41 K, 2895.5 kPa, x2 = 0.259 | 158.94
353.41 K, 4232.8 kPa, x2 = 0.698 | 183.2
353.41 K, 4326.6 kPa, x2 = 0.874 | 144.29
353.42 K, 848.3 kPa, x2 = 0.259 | 31.07
